Bridge positions count the residues as written; N and C are the ends. Peptide text beside a SMILES is read from it.
Assay: toxicity in vivo, LD50 after intracerebroventricular injection
Details: mouse, icv or intrathecal, 20 g C57/BL6 mice
Protocol: Groups of six to eight mice per dose were injected with 5 μl peptide solution containing 0.1% (w/v) bovine serum albumin and 0.9% (w/v) NaCl. The LD50 values are set out in Table 5.
`CC[C@H](C)[C@@H]1NC(=O)[C@H](CCCCN)NC(=O)[C@@H](NC(=O)[C@H](CCCCN)NC(=O)[C@@H](NC(=O)[C@H](CC(N)=O)NC(=O)[C@@H](NC(=O)[C@@H](NC(=O)[C@@H](NC(=O)CN)C(C)C)[C@@H](C)CC)[C@@H](C)CC)C(C)C)CSSC[C@@H]2NC(=O)[C@H](CCCCN)NC(=O)CNC(=O)[C@H](Cc3ccccc3)NC(=O)[C@H](CCCNC(=N)N)NC(=O)[C@H](CCSC)NC(=O)CNC(=O)[C@H](C)NC(=O)[C@H](CCCCN)NC(=O)[C@H](CCCCN)NC(=O)[C@@H]3CSSC[C@@H](C(=O)N[C@H](C(=O)N4CCC[C@H]4C(=O)N[C@@H](CCCCN)C(=O)O)[C@@H](C)O)NC(=O)[C@H](C)NC(=O)[C@H](CSSC[C@H](NC(=O)[C@H](CCC(N)=O)NC(=O)[C@H](CCCNC(=N)N)NC(=O)[C@H](CO)NC1=O)C(=O)N[C@@H](CC(C)C)C(=O)N[C@@H](CCC(=O)O)C(=O)N1CCC[C@H]1C(=O)N3)NC(=O)[C@H](CCCCN)NC(=O)CNC(=O)[C@H](CC(N)=O)NC(=O)[C@H](CCSC)NC2=O` [[A^34]-OsK1] (H-GVIINVKCKISRQCLEPCKKAGMRFGKCMNGKCACTPK-OH; disulfide 8-28, 14-33, 18-35) gave an LD50 of 0.01 mg/kg.
Compound `CC[C@H](C)[C@@H]1NC(=O)[C@H](CCCCN)NC(=O)[C@@H](NC(=O)[C@H](CCCCN)NC(=O)[C@@H](NC(=O)[C@H](CC(N)=O)NC(=O)[C@@H](NC(=O)[C@@H](NC(=O)[C@@H](NC(=O)CN)C(C)C)[C@@H](C)CC)[C@@H](C)CC)C(C)C)CSSC[C@@H]2NC(=O)[C@H](CCCCN)NC(=O)CNC(=O)[C@H](CC(N)=O)NC(=O)[C@H](CCCNC(=N)N)NC(=O)[C@H](CCSC)NC(=O)CNC(=O)[C@H](C)NC(=O)[C@H](CC(=O)O)NC(=O)[C@H](CCCCN)NC(=O)[C@@H]3CSSC[C@@H](C(=O)N[C@H](C(=O)N4CCC[C@H]4C(=O)N[C@@H](CCCCN)C(=O)O)[C@@H](C)O)NC(=O)[C@H](Cc4c[nH]cn4)NC(=O)[C@H](CSSC[C@H](NC(=O)[C@H](CCC(N)=O)NC(=O)[C@H](CCCNC(=N)N)NC(=O)[C@H](CO)NC1=O)C(=O)N[C@@H](CC(C)C)C(=O)N[C@@H](CCCCN)C(=O)N1CCC[C@H]1C(=O)N3)NC(=O)[C@H](CCCCN)NC(=O)CNC(=O)[C@H](CC(N)=O)NC(=O)[C@H](CCSC)NC2=O` (H-GVIINVKCKISRQCLKPCKDAGMRNGKCMNGKCHCTPK-OH; disulfide 8-28, 14-33, 18-35) has an LD50 of 0.0115 mg/kg.
`CC[C@H](C)[C@@H]1NC(=O)[C@H](CCCCN)NC(=O)[C@@H](N)CSSC[C@@H]2NC(=O)[C@H](CCCCN)NC(=O)CNC(=O)[C@H](Cc3ccccc3)NC(=O)[C@H](CCCNC(=N)N)NC(=O)[C@H](CCSC)NC(=O)CNC(=O)[C@H](C)NC(=O)[C@H](CC(=O)O)NC(=O)[C@H](CCCCN)NC(=O)[C@@H]3CSSC[C@@H](C(=O)N[C@H](C(=O)N4CCC[C@H]4C(=O)N[C@@H](CCCCN)C(=O)O)[C@@H](C)O)NC(=O)[C@H](Cc4c[nH]cn4)NC(=O)[C@H](CSSC[C@H](NC(=O)[C@H](CCC(N)=O)NC(=O)[C@H](CCCNC(=N)N)NC(=O)[C@H](CO)NC1=O)C(=O)N[C@@H](CC(C)C)C(=O)N[C@@H](CCCCN)C(=O)N1CCC[C@H]1C(=O)N3)NC(=O)[C@H](CCCCN)NC(=O)CNC(=O)[C@H](CC(N)=O)NC(=O)[C@H](CCSC)NC2=O` (H-CKISRQCLKPCKDAGMRFGKCMNGKCHCTPK-OH; disulfide 1-21, 7-26, 11-28) gave an LD50 of 0.015 mg/kg.
